The values that follow come from BindingDB's records for doi:10.7270/Q29Z939R (The Scripps Research Institute Molecular Screening Center, 2009).

Broadly, the IC50 is the midpoint of a concentration-inhibition curve. Higher therefore signals lower potency.

The experiment has as its target T1, Core protein (Hepacivirus C, UniProt Q2Q167).
T1 sequence (Q2Q167 whole entry): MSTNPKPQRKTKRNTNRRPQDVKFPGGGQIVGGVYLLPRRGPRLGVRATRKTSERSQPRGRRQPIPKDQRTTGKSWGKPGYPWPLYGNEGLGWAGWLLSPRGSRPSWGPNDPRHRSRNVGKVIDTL
The experiment can be described thus: HCV core protein dimerization inhibitors, dose response, biochemical, TR-FRET (AID 2159). (In general: In TR-FRET formats the signal depends on donor and acceptor labels being close together.)
`CCOC1=CC(=Cc2c(-c3ccccc3)[nH]n(-c3nc(-c4ccc(Br)cc4)cs3)c2=O)C=CC1=O` registered an IC50 greater than 49.8 µM.

`Cc1sccc1C1C(C#N)C(=N)SC(=N)C1C#N` (configuration not stated) [2,6-diamino-4-(2-methyl-3-thiophenyl)-4H-thiopyran-3,5-dicarbonitrile] yielded an IC50 greater than 49.8 µM.

The compound `Cc1cc(C)n2c(SCC(=O)C(C#N)c3nc4ccccc4[nH]3)nnc2n1` (configuration not stated) [2-(1,3-dihydrobenzimidazol-2-ylidene)-4-[(5,7-dimethyl-[1,2,4]triazolo[4,3-a]pyrimidin-3-yl)sulfanyl]-3-oxidanylidene-butanenitrile] registered an IC50 greater than 49.8 µM.

Compound `O=C1Nc2ccc([N+](=O)[O-])cc2/C1=N/NC(=O)c1cc(-c2ccccc2Cl)nc2ccccc12` [2-(2-chlorophenyl)-N'-(2-keto-5-nitro-indol-3-yl)cinchoninohydrazide] came in with an IC50 greater than 49.8 µM.

`O=[N+]([O-])c1cc([CH+][N-]n2c(O)csc2=S)ccc1Cl` [3-[(4-chloranyl-3-nitro-phenyl)methylideneamino]-2-sulfanylidene-1,3-thiazolidin-4-one] registered an IC50 greater than 49.8 µM.

`Cc1cccc2c1NC(=O)C2=NNc1ccc(S(=O)(=O)Nc2ccc(Cl)cc2)cc1[N+](=O)[O-]` [MLS000393762]: the 50% inhibitory concentration (IC50) is greater than 49.8 µM.

In the case of `COc1cccc(CN=Nc2ncnc3c2[nH]c2ccc(C)cc23)c1OC` [SMR000439805], the IC50 was greater than 49.8 µM.
